From US20090239840A1, “AMINO SUBSTITUTED DIARYL[a,d]CYCLOHEPTENE ANALOGS AS [sequence] AGONISTS AND METHODS OF TREATMENT OF NEUROPSYCHIATRIC DISORDERS” (ACADIA PHARMACEUTICALS, INC., priority 2003, published 2009) come the findings set out here.

Test [1] concerns the target T1, muscarinic M2 receptor (Homo sapiens, UniProt P08172).
T1 construct: expressed in transfected cells
T1 sequence (P08172 1-466): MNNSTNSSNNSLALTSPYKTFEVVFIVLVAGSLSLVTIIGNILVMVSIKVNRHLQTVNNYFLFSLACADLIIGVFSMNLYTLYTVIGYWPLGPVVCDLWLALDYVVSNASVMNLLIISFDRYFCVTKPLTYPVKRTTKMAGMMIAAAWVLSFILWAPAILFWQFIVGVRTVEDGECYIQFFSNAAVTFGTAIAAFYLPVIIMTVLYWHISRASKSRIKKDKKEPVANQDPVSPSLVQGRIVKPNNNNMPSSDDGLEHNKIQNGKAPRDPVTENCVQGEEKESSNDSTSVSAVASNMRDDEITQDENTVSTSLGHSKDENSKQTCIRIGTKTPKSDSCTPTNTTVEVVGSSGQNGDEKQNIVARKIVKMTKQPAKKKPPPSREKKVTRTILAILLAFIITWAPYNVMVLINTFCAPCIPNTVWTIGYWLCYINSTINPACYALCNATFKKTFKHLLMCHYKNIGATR
Put plainly: R-SAT functional screen, M2. In kind it is cell-based. Particulars: for Emax: read-out: M2 eff (efficacy). How it is done: (§1) Several compounds disclosed herein were evaluated for activity at muscarinic receptors using Receptor Selection and Amplification Technology (R-SAT) as described in U.S. Pat. No. 5,707,798, the disclosure of which is incorporated herein by reference in its entirety. The efficacy (eff) and potency (expressed as pEC50) of these compounds are presented in Table 1 at M1, M2, and M3 receptors.

Test [2] addresses T2, muscarinic M1 receptor (Homo sapiens, UniProt P11229).
T2 construct: expressed in transfected cells
T2 sequence (P11229 1-460): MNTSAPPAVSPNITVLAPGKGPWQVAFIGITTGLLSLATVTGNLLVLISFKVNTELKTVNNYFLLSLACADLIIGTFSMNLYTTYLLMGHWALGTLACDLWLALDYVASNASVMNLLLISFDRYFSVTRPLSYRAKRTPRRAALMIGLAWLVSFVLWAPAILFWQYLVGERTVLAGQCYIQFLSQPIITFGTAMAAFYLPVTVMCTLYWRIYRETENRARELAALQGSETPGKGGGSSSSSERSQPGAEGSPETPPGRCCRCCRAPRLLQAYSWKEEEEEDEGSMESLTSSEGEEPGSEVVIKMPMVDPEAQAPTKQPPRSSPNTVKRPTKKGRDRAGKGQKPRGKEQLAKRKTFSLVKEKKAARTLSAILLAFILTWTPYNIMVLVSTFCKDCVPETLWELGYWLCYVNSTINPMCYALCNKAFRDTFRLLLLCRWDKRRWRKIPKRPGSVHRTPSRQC
Put plainly: R-SAT functional screen, M1. In kind it is cell-based. Particulars: for Emax: read-out: M1 eff (efficacy). The procedure:
as §1

Where [3] appears, read: R-SAT, read-out: M1 pEC50 (converted).
[4] abbreviates: R-SAT, read-out: M2 pEC50 (converted).

The structures appear in SMILES notation. Like-named read-outs stand apart in the source and are kept apart here.

For the molecule `Brc1ccc2c(c1)N=C(N1CCNCC1)C1CCCC1N2` (stereo not drawn) [7-Bromo-10-(piperazin-1-yl)-1,2,3,3a,4,10a-hexahydro-benzo[b]cyclopenta[e][1,4]diazepine], the figures for the Emax in test [1] (R-SAT) and in test [2] (R-SAT) were 12% and 50%, respectively. The EC50 in test [2] (setting [3]) was 1580 nM.

For the molecule `Cc1ccc2c(c1)C(N1CCNCC1)=Nc1ccc(Cl)cc1N2` [7-Chloro-2-methyl-11-(piperazin-1-yl)-5H-dibenzo[b,e][1,4]diazepine], the values for the Emax in test [1] (R-SAT) and in test [2] (R-SAT) were 5% and -3%, respectively.

`Clc1ccc2c(c1)Nc1ccccc1C(N1CCNCC1)=N2` [7-Chloro-11-(piperazin-1-yl)-5H-dibenzo[b,e][1,4]diazepine]: the Emax worked out at 53% in test [1] (R-SAT) and 48% in test [2] (R-SAT). Also, in test [2] (setting [3]), the EC50 is 251 nM.

For `O=S(=O)(Oc1ccc2c(c1)N=C(N1CCNCC1)c1ccccc1N2)C(F)(F)F` [8-(Trifluoromethanesulfonyloxy)-11-(piperazin-1-yl)-5H-dibenzo[b,e][1,4]diazepine], the Emax in test [1] (R-SAT) came out at 62%; in test [2] (R-SAT), 19%. In test [1] (setting [4]), the EC50 was 2510 nM.

Regarding `Clc1ccc2c(c1)C(N1CCNCC1)=Nc1cc(Br)ccc1N2` [8-Bromo-2-chloro-11-(piperazin-1-yl)-5H-dibenzo[b,e][1,4]diazepine], the Emax in test [1] (R-SAT) turned out to be 29%; in test [2] (R-SAT) it was 10%. In test [1] (setting [4]), the EC50 was 3160 nM.

Take `Cc1ccc2c(c1)C(N1CCNCC1)=Nc1cc(Br)ccc1N2` [8-Bromo-2-methyl-11-(piperazin-1-yl)-5H-dibenzo[b,e][1,4]diazepine]: the results for the Emax in test [1] (R-SAT) and in test [2] (R-SAT) were 44% and 8%, respectively.

As for `Clc1ccc2c(c1)Nc1ccc(Br)cc1N=C2N1CCNCC1` [8-Bromo-3-chloro-11-(piperazin-1-yl)-5H-dibenzo[b,e][1,4]diazepine], the Emax came out at 34% in test [1] (R-SAT) and 31% in test [2] (R-SAT). Besides, the EC50 was 316 nM in test [1] (setting [4]) and 251 nM in test [2] (setting [3]).

Regarding `CN1c2ccc(Br)cc2N=C(N2CCNCC2)c2ccccc21` [8-Bromo-5-methyl-11-(piperazin-1-yl)-5H-dibenzo[b,e][1,4]diazepine], the Emax in test [1] (R-SAT) amounted to 75%; in test [2] (R-SAT) it was 92%. In addition, the EC50 in test [1] (setting [4]) was 2510 nM; in test [2] (setting [3]) it was 398 nM.

Take `O=S(=O)(Oc1ccc2c(c1)C(N1CCNCC1)=Nc1cc(Cl)ccc1N2)C(F)(F)F` [8-Chloro-2-(trifluoromethanesulfonyloxy)-11-(piperazin-1-yl)-5H-dibenzo[b,e][1,4]diazepine]: the Emax was 16% in test [1] (R-SAT) and -2% in test [2] (R-SAT).

For the molecule `Fc1ccc2c(c1)C(N1CCNCC1)=Nc1cc(Cl)ccc1N2` [8-Chloro-2-fluoro-11-(piperazin-1-yl)-5H-dibenzo[b,e][1,4]diazepine], the Emax in test [1] (R-SAT) stood at 121%; in test [2] (R-SAT) it was 32%. For the same molecule, the EC50 in test [1] (setting [4]) was 3160 nM; in test [2] (setting [3]) it was 158 nM.

For `COc1ccc2c(c1)C(N1CCNCC1)=Nc1cc(Cl)ccc1N2` [8-Chloro-2-methoxy-11-(piperazin-1-yl)-5H-dibenzo[b,e][1,4]diazepine], the Emax in test [1] (R-SAT) and in test [2] (R-SAT) was 7% each time.

Regarding `Cc1ccc2c(c1)C(N1CCNCC1)=Nc1cc(Cl)ccc1N2` [8-Chloro-2-methyl-11-(piperazin-1-yl)-5H-dibenzo[b,e][1,4]diazepine], the Emax in test [1] (R-SAT) was 28%; in test [2] (R-SAT), 14%. Further, the EC50 in test [1] (setting [4]) is 1260 nM.

Regarding `Clc1ccc2c(c1)N=C(N1CCNCC1)c1cccnc1N2` [8-Chloro-5-piperazin-1-yl-1H-benzo[b]pyrido[2,3-e][1,4]diazepine], the values for the Emax in test [1] and in test [2] were 7% and 51%, respectively. Also, the EC50 in test [2] (setting [3]) is 3160 nM.

In the case of `Clc1ccc2c(c1)N=C(c1cn[nH]c1)c1ccccc1N2` [8-Chloro-11-(1H-pyrazol-4-yl)-5H-dibenzo[b,e][1,4]diazepine], the Emax in test [1] (R-SAT) was found to be 3%; in test [2] (R-SAT), 9%.

`Clc1ccc2c(c1)N=C(N1CC3CC1CN3)c1ccccc1N2` (stereo not drawn) [8-Chloro-11-(2,5-diaza-bicyclo[2.2.1]hept-2-yl)-5H-dibenzo[b,e][1,4]diazepine]: the Emax in test [1] (R-SAT) was 49%; in test [2] (R-SAT) it was 34%. For the same molecule, the EC50 in test [1] (setting [4]) is 2510 nM; in test [2] (setting [3]), 251 nM.

For the molecule `CC1CN(C2=Nc3cc(Cl)ccc3Nc3ccccc32)CC(C)N1` (stereo not drawn) [8-Chloro-11-(3,5-dimethyl-piperazin-1-yl)-5H-dibenzo[b,e][1,4]diazepine], the Emax in test [1] (R-SAT) was found to be 97%; in test [2] (R-SAT) it was 18%. The EC50 in test [1] (setting [4]) is 2510 nM.

As to `Clc1ccc2c(c1)N=C(N1CCNC(c3ccccc3)C1)c1ccccc1N2` (stereo not drawn) [8-Chloro-11-(3-phenyl-piperazin-1-yl)-5H-dibenzo[b,e][1,4]diazepine], the Emax in test [1] (R-SAT) is 23%; in test [2] (R-SAT), 5%.

For `Fc1ccc(CC2=Nc3cc(Cl)ccc3Nc3ccccc32)cc1` [8-Chloro-11-(4-fluorobenzyl)-5H-dibenzo[b,e][1,4]diazepine], the Emax was 7% in test [1] (R-SAT) and 3% in test [2] (R-SAT).

Consider `Fc1ccc(C2=Nc3cc(Cl)ccc3Nc3ccccc32)cc1` [8-Chloro-11-(4-fluorophenyl)-5H-dibenzo[b,e][1,4]diazepine], for which the Emax in test [1] (R-SAT) worked out at 4%; in test [2] (R-SAT) it was 13%.

With `CN1CCCN(C2=Nc3cc(Cl)ccc3Nc3ccccc32)CC1` [8-Chloro-11-(4-methyl-[1,4]diazepam-1-yl)-5H-dibenzo[b,e][1,4]diazepine], in test [1], the EC50 was 1260 nM and the Emax turned out to be 50%. Further, the Emax in test [2] came out at 18%.

`CN1CCN(C2=Nc3cc(Cl)ccc3Oc3ccccc32)CC1` [8-Chloro-11-(4-methyl-piperazin-1-yl)-dibenzo[b,f][1,4]oxazepine]: the figures for the Emax in test [1] (R-SAT) and in test [2] (R-SAT) were 46% and 13%, respectively. Besides, the EC50 in test [1] (setting [4]) was 1580 nM.

Consider `CCCCCCCCCc1ccc(C2=Nc3cc(Cl)ccc3Nc3ccccc32)cc1` [8-Chloro-11-(4-nonylphenyl)-5H-dibenzo[b,e][1,4]diazepine], for which the results for the Emax in test [1] (R-SAT) and in test [2] (R-SAT) were 8% and 1%, respectively.

With `Clc1ccc2c(c1)N=C(N1CCOCC1)c1ccccc1N2` [8-Chloro-11-(morpholin-4-yl)-5H-dibenzo[b,e][1,4]diazepine], the Emax in test [1] (R-SAT) was found to be 6%; in test [2] (R-SAT) it was 11%.

For `Clc1ccc2c(c1)N=C(N1CCNCC1)c1ccccc1O2` [8-Chloro-11-(piperazin-1-yl)-dibenzo[b,f][1,4]oxazepine], the figures for the Emax in test [1] (R-SAT) and in test [2] (R-SAT) were 58% and 52%, respectively. The EC50 in test [1] (setting [4]) is 1000 nM; in test [2] (setting [3]) it was 100 nM.

On to `Clc1ccc2c(c1)N=C(N1CCNCC1)c1ccccc1S2` [8-Chloro-11-(piperazin-1-yl)-dibenzo[b,f][1,4]thiazepine], for which the Emax in test [1] (R-SAT) came to 52%; in test [2] (R-SAT), 11%. For the same molecule, the EC50 in test [1] (setting [4]) is 1260 nM.

For `Clc1ccc2c(c1)N=C(N1CCCCC1)c1ccccc1N2` [8-Chloro-11-(piperidin-1-yl)-5H-dibenzo[b,e][1,4]diazepine], the Emax is 9% in test [1] (R-SAT) and 47% in test [2] (R-SAT). For the same molecule, the EC50 in test [2] (setting [3]) is 1580 nM.

With `Clc1ccc2c(c1)N=C(C1CCNCC1)c1ccccc1N2` [8-Chloro-11-(piperidin-4-yl)-5H-dibenzo[b,e][1,4]diazepine], the figures for the Emax in test [1] (R-SAT) and in test [2] (R-SAT) were 31% and 57%, respectively. Besides, the EC50 in test [1] (setting [4]) is 2000 nM; in test [2] (setting [3]), 631 nM.

For `Clc1ccc2c(c1)N=C(c1ccncc1)c1ccccc1N2` [8-Chloro-11-(pyridin-4-yl)-5H-dibenzo[b,e][1,4]diazepine], the Emax in test [1] (R-SAT) and in test [2] (R-SAT) was 6% throughout.

For `Clc1ccc2c(c1)N=C(N1CCCNCC1)c1ccccc1N2` [8-Chloro-11-[1,4]diazepam-1-yl-5H-dibenzo[b,e][1,4]diazepine], in test [1], the EC50 was 631 nM and the Emax is 82%. Besides, in test [2], the EC50 is 100 nM and the Emax was found to be 37%.

Consider `Fc1ccc2c(c1)N=C(N1CCNCC1)c1ccccc1N2` [8-Fluoro-11-(piperazin-1-yl)-5H-dibenzo[b,e][1,4]diazepine], for which the Emax in test [1] (R-SAT) is 95%; in test [2] (R-SAT), 32%. In addition, the EC50 in test [1] (setting [4]) was 2000 nM; in test [2] (setting [3]), 200 nM.
